Data as given in ChEMBL document CHEMBL5303573, “Mapping human microbiome drug metabolism by gut bacteria and their genes” (Nature, 2019).

Columns and labels:
[1] = The drug is tested on Clostridium symbiosum strain: ATCC14940 for biotransformation. The drug concentrations were measured before and after a 12-h incubation by liquid-chromatography-coupled mass spectrometry (LC–MS); conditions: 2 µM
[2] = The drug is tested on Coprococcus comes strain: ATCC27758 for biotransformation. The drug concentrations were measured before and after a 12-h incubation by liquid-chromatography-coupled mass spectrometry (LC–MS); format: ADME; design: dose 2 uM, timepoint 0 vs 12 hours; conditions: 2 µM
[3] = The drug is tested on Bacteroides cellulosilyticus strain: DSM14838 for biotransformation. The drug concentrations were measured before and after a 12-h incubation by liquid-chromatography-coupled mass spectrometry (LC–MS); conditions: 2 µM
[4] = segatella copri, 12 h, 2 µM
Description: The drug is tested on Prevotella copri strain: DSM18205 for biotransformation. The drug concentrations were measured before and after a 12-h incubation by liquid-chromatography-coupled mass spectrometry (LC–MS)

[5] = limosilactobacillus reuteri cf48-3a, 12 h, 2 µM
Description: The drug is tested on Lactobacillus reuteri CF48-3A strain: BEI HM-102 for biotransformation. The drug concentrations were measured before and after a 12-h incubation by liquid-chromatography-coupled mass spectrometry (LC–MS)

[6] = bacteroides intestinalis, 12 h, 2 µM
Description: The drug is tested on Bacteroides intestinalis strain: DSM17393 for biotransformation. The drug concentrations were measured before and after a 12-h incubation by liquid-chromatography-coupled mass spectrometry (LC–MS)

[7] = The drug is tested on Providencia stuartii strain: ATCC25827 for biotransformation. The drug concentrations were measured before and after a 12-h incubation by liquid-chromatography-coupled mass spectrometry (LC–MS); conditions: 2 µM
[8] = The drug is tested on Bacteroides ovatus strain: ATCC8483 for biotransformation. The drug concentrations were measured before and after a 12-h incubation by liquid-chromatography-coupled mass spectrometry (LC–MS); conditions: 2 µM
[9] = The drug is tested on Eubacterium rectale strain: ATCC33656 for biotransformation. The drug concentrations were measured before and after a 12-h incubation by liquid-chromatography-coupled mass spectrometry (LC–MS); conditions: agathobacter rectalis, 2 µM
[10] = The drug is tested on Bacteroides xylanisolvens strain: DSM18836 for biotransformation. The drug concentrations were measured before and after a 12-h incubation by liquid-chromatography-coupled mass spectrometry (LC–MS); conditions: 2 µM
[11] = The drug is tested on Bacteroides sp. WH2 strain: WH2 for biotransformation. The drug concentrations were measured before and after a 12-h incubation by liquid-chromatography-coupled mass spectrometry (LC–MS); conditions: bacteroides sp. wh2, 12 h, 2 µM
[12] = The drug is tested on Ruminococcus gnavus strain: ATCC29149 for biotransformation. The drug concentrations were measured before and after a 12-h incubation by liquid-chromatography-coupled mass spectrometry (LC–MS); conditions: mediterraneibacter gnavus, 2 µM
[13] = The drug is tested on Bifidobacterium ruminantium strain: fecal isolate for biotransformation. The drug concentrations were measured before and after a 12-h incubation by liquid-chromatography-coupled mass spectrometry (LC–MS); conditions: 2 µM
[14] = The drug is tested on Eubacterium ventriosum strain: ATCC27560 for biotransformation. The drug concentrations were measured before and after a 12-h incubation by liquid-chromatography-coupled mass spectrometry (LC–MS); format: ADME; design: dose 2 uM, timepoint 0 vs 12 hours; conditions: 2 µM
[15] = The drug is tested on Blautia luti strain: DSM14534 for biotransformation. The drug concentrations were measured before and after a 12-h incubation by liquid-chromatography-coupled mass spectrometry (LC–MS); format: ADME; design: dose 2 uM, timepoint 0 vs 12 hours; conditions: 2 µM
[16] = bifidobacterium adolescentis, 12 h, 2 µM
Description: The drug is tested on Bifidobacterium adolescentis strain: ATCC 15703 for biotransformation. The drug concentrations were measured before and after a 12-h incubation by liquid-chromatography-coupled mass spectrometry (LC–MS)

[17] = The drug is tested on Dorea formicigenerans strain: ATCC27755 for biotransformation. The drug concentrations were measured before and after a 12-h incubation by liquid-chromatography-coupled mass spectrometry (LC–MS); conditions: 2 µM
[18] = The drug is tested on Enterobacter cancerogenus strain: ATCC35316 for biotransformation. The drug concentrations were measured before and after a 12-h incubation by liquid-chromatography-coupled mass spectrometry (LC–MS); conditions: 2 µM
[19] = The drug is tested on Subdoligranulum variabile strain: DSM15176 for biotransformation. The drug concentrations were measured before and after a 12-h incubation by liquid-chromatography-coupled mass spectrometry (LC–MS); conditions: 2 µM
[20] = enterocloster bolteae, 12 h, 2 µM
Description: The drug is tested on Clostridium bolteae strain: ATCCBAA-613 for biotransformation. The drug concentrations were measured before and after a 12-h incubation by liquid-chromatography-coupled mass spectrometry (LC–MS)

| SMILES | Bacterial Biotransformation [1] | Bacterial Biotransformation [2] | Bacterial Biotransformation [3] | Bacterial Biotransformation [4] | Bacterial Biotransformation [5] | Bacterial Biotransformation [6] | Bacterial Biotransformation [7] | Bacterial Biotransformation [8] | Bacterial Biotransformation [9] | Bacterial Biotransformation [10] | Bacterial Biotransformation [11] | Bacterial Biotransformation [12] | Bacterial Biotransformation [13] | Bacterial Biotransformation [14] | Bacterial Biotransformation [15] | Bacterial Biotransformation [16] | Bacterial Biotransformation [17] | Bacterial Biotransformation [18] | Bacterial Biotransformation [19] | Bacterial Biotransformation [20] |
| --- | --- | --- | --- | --- | --- | --- | --- | --- | --- | --- | --- | --- | --- | --- | --- | --- | --- | --- | --- | --- |
| CCC(COC(=O)c1cc(OC)c(OC)c(OC)c1)(c1ccccc1)N(C)C.O=C(O)/C=C\C(=O)O (stereo not given) | Compound metabolized | Compound metabolized | Compound NOT metabolized | Compound metabolized | Compound metabolized | Compound metabolized | Compound NOT metabolized | Compound metabolized | Compound metabolized | Compound metabolized | Compound metabolized | Compound metabolized | Compound metabolized | Compound metabolized | Compound metabolized | Compound metabolized | Compound metabolized | Compound metabolized | Compound metabolized | Compound metabolized |
| C#C[C@]1(OC(C)=O)CC[C@H]2[C@@H]3CCC4=C[C@@H](OC(C)=O)CC[C@@H]4[C@H]3CC[C@@]21C [ETHYNODIOL DIACETATE] | – | Compound NOT metabolized | Compound NOT metabolized | Compound NOT metabolized | Compound NOT metabolized | Compound NOT metabolized | Compound NOT metabolized | Compound NOT metabolized | Compound NOT metabolized | Compound NOT metabolized | Compound NOT metabolized | – | Compound NOT metabolized | Compound NOT metabolized | – | Compound NOT metabolized | Compound NOT metabolized | Compound NOT metabolized | Compound NOT metabolized | Compound NOT metabolized |
| CCCCC1=NC2(CCCC2)C(=O)N1Cc1ccc(-c2ccccc2-c2nnn[nH]2)cc1 [IRBESARTAN] | Compound metabolized | Compound metabolized | Compound metabolized | Compound metabolized | Compound metabolized | Compound metabolized | Compound metabolized | Compound metabolized | Compound NOT metabolized | Compound metabolized | Compound metabolized | Compound NOT metabolized | Compound metabolized | Compound NOT metabolized | Compound NOT metabolized | Compound metabolized | Compound metabolized | Compound metabolized | Compound metabolized | Compound metabolized |
| O=c1[nH]c2ccccc2n1C1CCN(CCCC(c2ccc(F)cc2)c2ccc(F)cc2)CC1 [PIMOZIDE] | Compound NOT metabolized | Compound NOT metabolized | Compound NOT metabolized | Compound NOT metabolized | Compound NOT metabolized | Compound NOT metabolized | Compound NOT metabolized | Compound NOT metabolized | Compound NOT metabolized | Compound NOT metabolized | Compound NOT metabolized | Compound NOT metabolized | Compound NOT metabolized | Compound NOT metabolized | Compound NOT metabolized | Compound NOT metabolized | Compound NOT metabolized | Compound NOT metabolized | Compound NOT metabolized | Compound NOT metabolized |
| C[C@]12C=CC(=O)C=C1CC[C@@H]1[C@@H]2C(=O)C[C@@]2(C)[C@H]1CC[C@]2(O)C(=O)CO [PREDNISONE] | Compound NOT metabolized | Compound NOT metabolized | Compound NOT metabolized | Compound NOT metabolized | Compound NOT metabolized | Compound NOT metabolized | Compound NOT metabolized | Compound NOT metabolized | Compound NOT metabolized | Compound NOT metabolized | Compound NOT metabolized | Compound NOT metabolized | Compound NOT metabolized | Compound NOT metabolized | Compound NOT metabolized | Compound NOT metabolized | Compound NOT metabolized | Compound NOT metabolized | Compound NOT metabolized | Compound NOT metabolized |
| COc1ccccc1OCC(O)CN1CCN(CC(=O)Nc2c(C)cccc2C)CC1 (stereo not given) [RANOLAZINE] | Compound NOT metabolized | Compound NOT metabolized | Compound NOT metabolized | Compound NOT metabolized | Compound NOT metabolized | Compound NOT metabolized | Compound NOT metabolized | Compound NOT metabolized | Compound NOT metabolized | Compound NOT metabolized | Compound NOT metabolized | Compound NOT metabolized | Compound NOT metabolized | Compound NOT metabolized | Compound NOT metabolized | Compound NOT metabolized | Compound NOT metabolized | Compound NOT metabolized | Compound NOT metabolized | Compound NOT metabolized |
| C=CC[C@@H]1/C=C(\C)C[C@H](C)C[C@H](OC)[C@H]2O[C@@](O)(C(=O)C(=O)N3CCCC[C@H]3C(=O)O[C@H](/C(C)=C/[C@@H]3CC[C@@H](O)[C@H](OC)C3)[C@H](C)[C@@H](O)CC1=O)[C@H](C)C[C@@H]2OC.O [TACROLIMUS] | Compound metabolized | Compound metabolized | Compound metabolized | Compound NOT metabolized | Compound metabolized | Compound metabolized | Compound NOT metabolized | Compound NOT metabolized | Compound metabolized | Compound metabolized | Compound NOT metabolized | Compound metabolized | Compound NOT metabolized | Compound NOT metabolized | Compound metabolized | Compound NOT metabolized | Compound NOT metabolized | Compound metabolized | Compound metabolized | Compound metabolized |
| CS(=O)(=O)O.O.O.O.O=C1Cc2cc(CCN3CCN(c4nsc5ccccc45)CC3)c(Cl)cc2N1 [ZIPRASIDONE MESYLATE] | Compound NOT metabolized | Compound NOT metabolized | Compound NOT metabolized | Compound NOT metabolized | Compound NOT metabolized | Compound NOT metabolized | Compound NOT metabolized | Compound metabolized | Compound NOT metabolized | Compound NOT metabolized | – | Compound NOT metabolized | Compound NOT metabolized | Compound NOT metabolized | Compound NOT metabolized | – | Compound NOT metabolized | Compound NOT metabolized | Compound NOT metabolized | Compound NOT metabolized |
